From patent US10765114B2, “4-amino-6-(pyridyl and 2-substitutedphenyl)-picolinates and 6-amino-2-(pyridyl and 2-substitutedphenyl)-pyrimidine-4-carboxylates and their use as herbicides” (Dow AgroSciences LLC, priority 2013, dated 2020)
Read-outs that look alike come from different tables or passages of the source.

Key:
[1] = tested on: Key Grass and Sedge Weeds as well as Grass Crops; assay: Post-Emergent Test II (Table 6); format: in vivo; settings: post-emergence, 336 h, 14 days after application; for pest or weed control at 70 g/ha: 70 g ai/ha; for pest or weed control at 140 g/ha: 140 g ai/ha
Procedure, shortened: (§1)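 Visual injury ratings (0 = no injury, 100 = complete kill) were taken 14 days after treatment relative to untreated plants. Seedlings at the first or second true leaf stage received an overhead spray at 187 L/ha, and solvent-blank sprayed plants served as controls.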

[2] = tested on: Key Broadleaf Weed and Crop Species; assay: Post-Emergent Test II (Table 5); format: in vivo; settings: post-emergence, 336 h; for pest or weed control at 70 g/ha: application rate 70 (kg ai/ha; footnote: g ai/ha); for pest or weed control at 140 g/ha: application rate 140 (kg ai/ha; footnote: g ai/ha)
Procedure, shortened: as §1

[3] = CYPSS, read-out: Visual Growth Reduction (%) 14 Days After Application CYPSS
[4] = DIGSA: crabgrass (Digitaria sanguinalis), read-out: Visual Growth Reduction (%) 14 Days After Application DIGSA
[5] = ECHSS, read-out: Visual Growth Reduction (%) 14 Days After Application ECHSS
[6] = ORYSS (crop), read-out: Visual Growth Reduction (%) 14 Days After Application ORYSS
[7] = SETFA: giant foxtail (Setaria faberi), read-out: Visual Growth Reduction (%) 14 Days After Application SETFA
[8] = SORVU: grain sorghum (Sorghum vulgare), read-out: Visual Growth Reduction (%) 14 Days After Application SORVU
[9] = TRZSS (crop), read-out: Visual Growth Reduction (%) 14 Days After Application TRZSS
[10] = ZEAMX: maize, corn (Zea mays), read-out: Visual Growth Reduction (%) 14 Days After Application ZEAMX
[11] = Abutilon theophrasti, ABUTH: velvetleaf (Abutilon theophrasti), read-out: Visual Growth Reduction (%) 14 Days After Application ABUTH
[12] = Amaranthus retroflexus, AMARE: redroot pigweed (Amaranthus retroflexus), read-out: Visual Growth Reduction (%) 14 Days After Application AMARE
[13] = Brassica napus, BRSSS: oilseed rape, canola (Brassica napus), read-out: Visual Growth Reduction (%) 14 Days After Application BRSSS
[14] = Chenopodium album, CHEAL: lambsquarters (Chenopodium album), read-out: Visual Growth Reduction (%) 14 Days After Application CHEAL
[15] = Euphorbia heterophylla, EPHHL: wild poinsettia (Euphorbia heterophylla), read-out: Visual Growth Reduction (%) 14 Days After Application EPHHL
[16] = Helianthus annuus, HELAN: sunflower (Helianthus annuus), read-out: Visual Growth Reduction (%) 14 Days After Application HELAN
[17] = Viola tricolor, VIOTR: wild pansy (Viola tricolor), read-out: Visual Growth Reduction (%) 14 Days After Application VIOTR

| Compound | pest or weed control at 70 g/ha [1, 3] [%] | pest or weed control at 140 g/ha [1, 3] [%] | pest or weed control at 70 g/ha [1, 4] [%] | pest or weed control at 140 g/ha [1, 4] [%] | pest or weed control at 70 g/ha [1, 5] [%] | pest or weed control at 140 g/ha [1, 5] [%] | pest or weed control at 70 g/ha [1, 6] [%] | pest or weed control at 140 g/ha [1, 6] [%] | pest or weed control at 70 g/ha [1, 7] [%] | pest or weed control at 140 g/ha [1, 7] [%] | pest or weed control at 70 g/ha [1, 8] [%] | pest or weed control at 140 g/ha [1, 8] [%] | pest or weed control at 70 g/ha [1, 9] [%] | pest or weed control at 140 g/ha [1, 9] [%] | pest or weed control at 70 g/ha [1, 10] [%] | pest or weed control at 140 g/ha [1, 10] [%] | melting point [°C] | pest or weed control at 70 g/ha [2, 11] [%] | pest or weed control at 140 g/ha [2, 11] [%] | pest or weed control at 70 g/ha [2, 12] [%] | other results |
| --- | --- | --- | --- | --- | --- | --- | --- | --- | --- | --- | --- | --- | --- | --- | --- | --- | --- | --- | --- | --- | --- |
| COC(=O)c1nc(-c2ccc(F)c(F)c2C)cc(N)c1Cl [Compound 69] | 45 to 59 | 95 to 100 | 0 to 29 | 0 to 29 | 0 to 29 | 0 to 29 | 0 to 29 | 0 to 29 | 0 to 29 | 0 to 29 | 0 to 29 | 0 to 29 | 0 to 29 | 0 to 29 | 0 to 29 | 0 to 29 | 120 to 126 | 95 to 100 | 95 to 100 | 95 to 100 | pest or weed control at 140 g/ha [2, 12]: 95 to 100%; pest or weed control at 70 g/ha [2, 13]: 85 to 94%; pest or weed control at 140 g/ha [2, 13]: 95 to 100%; pest or weed control at 70 g/ha [2, 14]: 95 to 100%; pest or weed control at 140 g/ha [2, 14]: 95 to 100%; pest or weed control at 70 g/ha [2, 15]: 0 to 29%; pest or weed control at 140 g/ha [2, 15]: 0 to 29%; pest or weed control at 70 g/ha [2, 16]: 85 to 94%; pest or weed control at 140 g/ha [2, 16]: 85 to 94%; pest or weed control at 70 g/ha [2, 17]: 0 to 29%; pest or weed control at 140 g/ha [2, 17]: 0 to 29% |
| Cc1c(F)c(Cl)cc(F)c1-c1cc(N)c(Cl)c(C(=O)O)n1 [Compound 92, 4-amino-3-chloro-6-(4-chloro-3,6-difluoro-2-methylphenyl)picolinic acid] | 0 to 29 | 0 to 29 | 0 to 29 | 0 to 29 | 0 to 29 | 0 to 29 | 0 to 29 | 0 to 29 | 0 to 29 | 0 to 29 | 0 to 29 | 0 to 29 | 30 to 44 | 60 to 74 | 0 to 29 | 0 to 29 | 160 to 162 | 95 to 100 | 95 to 100 | 95 to 100 | pest or weed control at 140 g/ha [2, 12]: 95 to 100%; pest or weed control at 70 g/ha [2, 13]: 95 to 100%; pest or weed control at 140 g/ha [2, 13]: 95 to 100%; pest or weed control at 70 g/ha [2, 14]: 95 to 100%; pest or weed control at 140 g/ha [2, 14]: 95 to 100%; pest or weed control at 70 g/ha [2, 15]: 0 to 29%; pest or weed control at 140 g/ha [2, 15]: 30 to 44%; pest or weed control at 70 g/ha [2, 16]: 95 to 100%; pest or weed control at 140 g/ha [2, 16]: 95 to 100%; pest or weed control at 70 g/ha [2, 17]: 60 to 74%; pest or weed control at 140 g/ha [2, 17]: 75 to 84% |
| COC(=O)c1nc(-c2ccc(Cl)nc2F)c(F)c(N)c1Cl [Compound 45] | 95 to 100 | 95 to 100 | 60 to 74 | 75 to 84 | 75 to 84 | 85 to 94 | 0 to 29 | 0 to 29 | 45 to 59 | 45 to 59 | 30 to 44 | 45 to 59 | 0 to 29 | 0 to 29 | 0 to 29 | 0 to 29 | 190 to 191 | 85 to 94 | 95 to 100 | 95 to 100 | pest or weed control at 140 g/ha [2, 12]: 95 to 100%; pest or weed control at 70 g/ha [2, 13]: 0 to 29%; pest or weed control at 140 g/ha [2, 13]: 30 to 44%; pest or weed control at 70 g/ha [2, 14]: 95 to 100%; pest or weed control at 140 g/ha [2, 14]: 95 to 100%; pest or weed control at 70 g/ha [2, 15]: 30 to 44%; pest or weed control at 140 g/ha [2, 15]: 45 to 59%; pest or weed control at 70 g/ha [2, 16]: 95 to 100%; pest or weed control at 140 g/ha [2, 16]: 95 to 100%; pest or weed control at 70 g/ha [2, 17]: 75 to 84%; pest or weed control at 140 g/ha [2, 17]: 95 to 100% |
| COC(=O)c1nc(-c2ccc(Cl)nc2OC)cc(N)c1Cl [Compound 48] | 0 to 29 | 0 to 29 | 0 to 29 | 0 to 29 | 0 to 29 | 0 to 29 | 0 to 29 | 0 to 29 | 0 to 29 | 0 to 29 | 0 to 29 | 0 to 29 | 0 to 29 | 0 to 29 | 0 to 29 | 45 to 59 | 109 to 111 | 85 to 94 | 85 to 94 | 95 to 100 | pest or weed control at 140 g/ha [2, 12]: 95 to 100%; pest or weed control at 70 g/ha [2, 13]: 0 to 29%; pest or weed control at 140 g/ha [2, 13]: 45 to 59%; pest or weed control at 70 g/ha [2, 14]: 95 to 100%; pest or weed control at 140 g/ha [2, 14]: 95 to 100%; pest or weed control at 70 g/ha [2, 15]: 0 to 29%; pest or weed control at 140 g/ha [2, 15]: 0 to 29%; pest or weed control at 70 g/ha [2, 16]: 85 to 94%; pest or weed control at 140 g/ha [2, 16]: 85 to 94%; pest or weed control at 70 g/ha [2, 17]: 45 to 59%; pest or weed control at 140 g/ha [2, 17]: 60 to 74% |
